Measured values as given in patent US6380194B1 (Janssen Pharmaceutica N.V., priority 1996, dated 2002).
pIC50: −log10 of the molar value.

Experiments:
HIV-1 = test: Inhibition of HIV-induced cytopathic effect in MT-4 cells (MTT); format: cell-based; conditions: dose achieving 50% protection of HIV-infected MT-4 cells, mean, number of experiments in brackets
Protocol: (§1) A rapid, sensitive and automated assay procedure was used for the in vitro evaluation of anti-HIV agents. An […] T4-cell line, MT-4, which was previously shown (Koyanagi et al., Int. J. Cancer, 36, 445-451, 1985) to be highly susceptible to and permissive for HIV infection, served as the target cell line. Inhibition of the HIV-induced cytopathic effect was used as the end point. The viability of both HIV- and mock-infected cells was assessed spectrophotometrically via the in situ reduction of 3-(4,5-dimethylthiazol-2-yl)-2,5-diphenyltetrazolium bromide (MTT). The 50% cytotoxic concentration (CC50 in μM) was defined as the concentration of compound that reduced the absorbance of the mock-infected control sample by 50%. The percent protection achieved by the compound in HIV-infected cells was calculated by the following formula: [formula]
(§2) whereby (ODT)HIV is the optical density measured with a given concentration of the test compound in HIV-infected cells; (ODC)HIV is the optical density measured for the control untreated HIV-infected cells; (ODC)MOCK is the optical density measured for the control untreated mock-infected cells; all optical density values were determined at 540 nm. The dose achieving 50% protection according to the above formula was defined as the 50% inhibitory concentration (IC50 in μM). The ratio of CC50 to IC50 was defined as the selectivity index (SI).

[1] = Cytotoxicity in mock-infected MT-4 cells (MTT); conditions: human
Protocol: as §1, §2

mock-infected MT-4 cells = test: Cytotoxicity in mock-infected MT-4 cells (MTT)
Protocol: as §1, §2

[2] = Human immunodeficiency virus 1, MT4

Compound	CC50 ([1]; mock-infected MT-4 cells) [µM]	other results
CN(C)CCNc1nc(Cc2c(Cl)cccc2Cl)nc(Nc2ccc(C#N)cc2)n1 [Compound 29]		pIC50 (HIV-1): 7.30
COC(=O)CN(c1ccc(C#N)cc1)c1nc(N)nc(Cc2c(Cl)cccc2Cl)n1 [Compound 39]		pIC50 (HIV-1; [2]): 7.11; CC50 [1]: > 20 µM
N#Cc1ccc(Nc2nc(Cc3c(Cl)cccc3Cl)nc(NO)n2)cc1 [Compound 33, 4-[[4-[(2,6-dichlorophenyl)methyl]-6-(hydroxyamino)-1,3,5-triazin-2-yl]amino]benzonitrile]	14.1	
CC(C)NC(=O)Nc1nc(Cc2c(Cl)cccc2Cl)nc(Nc2ccc(C#N)cc2)n1 [Compound 6, N-[4-[(4-cyanophenyl)amino]-6-[(2,6-dichlorophenyl)methyl]-1,3,5-triazin-2-yl]-N′-(1-methylethyl)urea]	> 100	
CN(C)C=Nc1nc(Cc2c(Cl)cccc2Cl)nc(Nc2ccc(C#N)cc2)n1 [Compound 62, 4-[[4-[(2,6-dichlorophenyl)methyl]-6-[[(dimethylamino)methylene]amino]-1,3,5-triazin-2-yl]amino]benzonitrile]	> 100	
CC(=N)Nc1nc(Cc2c(Cl)cccc2Cl)nc(Nc2ccc(C#N)cc2)n1 [Compound 28]		pIC50 (HIV-1): 8.52; CC50 (mock-infected MT-4 cells): > 100 µM
N#Cc1ccc(Nc2nc(Cc3c(Cl)cccc3Cl)nc(NC(CCO)C(N)=O)n2)cc1 (racemic) [Compound 34, (±)-2-[[4-[(4-cyanophenyl)amino]-6-[(2,6-dichlorophenyl)amino]-6-[(2,6-dichlorophenyl)methyl]-1,3,5-triazin-2-yl]amino-4-hydroxybutanamide]		pIC50 (HIV-1): 7.24; CC50 (mock-infected MT-4 cells): 42.3 µM
CCOc1cccc(Cc2nc(N)nc(Nc3ccc(C#N)cc3)n2)c1 [Compound 48]		pIC50 (HIV-1): 7.13; CC50 (mock-infected MT-4 cells): > 20 µM
N#Cc1ccc(Nc2nc(Cc3c(Cl)cccc3Cl)nc(NCC(=O)O)n2)cc1 [Compound 16, N-[4-[(4-cyanophenyl)amino]-6-[(2,6-dichlorophenyl)methyl]-1,3,5-triazin-2-yl]glycine]	79.9	
N#Cc1ccc(Nc2nc(N)nc(Cc3c(Cl)cccc3Cl)n2)cc1 [Compound 1, 4-[[4-amino-6-[(2,6-dichlorophenyl)methyl]-1,3,5-triazin-2-yl]amino]benzonitrile]	> 100	
CC(=O)Nc1nc(Cc2c(Cl)cccc2Cl)nc(Nc2ccc(C#N)cc2)n1 [Compound 22, N-[4-[(4-cyanophenyl)amino]-6-[(2,6-dichlorophenyl)methyl]-1,3,5-triazin-2-yl]-acetamide]	> 100	
N#Cc1ccc(Nc2nc(N)nc(Cc3c(Cl)ccc4[nH]ccc34)n2)cc1 [Compound 8, 4-[[4-amino-6-[(5-chloro-1H-indol-4-yl)methyl]-1,3,5-triazin-2-yl]amino]benzonitrile]	14.4	
CN(C)c1nc(Cc2c(Cl)cccc2Cl)nc(N(c2ccc(C#N)cc2)c2ccc(C#N)cc2)n1 [Compound 38, 4,4′-[[4-[(2,6-dichlorophenyl)methyl]-6-(dimethylamino)-1,3,5-triazin-2-yl]imino]bisbenzonitrile]	> 100	
N#Cc1ccc(Nc2nc(Cc3c(Cl)cccc3Cl)nc(NCCCNC(N)=O)n2)cc1 [Compound 23, N-[3-[[4-[(4-cyanophenyl)amino]-6-[(2,6-dichlorophenyl)methyl]-1,3,5-triazin-2-yl]amino]propyl]urea]	36.7	
N#Cc1ccc(Nc2nc(Cc3c(Cl)cccc3Cl)nc(NCC(N)=O)n2)cc1 [Compound 14, [N-[4-[(4-cyanophenyl)amino]-6-[(2,6-dichlorophenyl)methyl]-1,3,5-triazin-2-yl]]aminoacetamide]	9.1	
N#Cc1ccc(Nc2nc(N)nc(C(CC3CC3)c3c(Cl)cccc3Cl)n2)cc1 (racemic) [Compound 61]		pIC50 (HIV-1): 5.16; CC50 (mock-infected MT-4 cells): 53.4 µM
N#Cc1ccc(Nc2nc(Cc3c(Cl)cccc3Cl)nc(NN)n2)cc1 [Compound 15, 4-[[4-[(2,6-dichlorophenyl)methyl]-6-hydrazino-1,3,5-triazin-2yl]amino]benzonitrile]	44.6	
NC(=O)c1ccc(Nc2nc(N)nc(Cc3c(Cl)ccc4[nH]ccc34)n2)cc1 [Compound 9, 4-[[4-amino-6-[(5-chloro-1H-indol-4-yl)methyl]-1,3,5-triazin-2-yl]amino]benzamide]	54.4	
N#Cc1ccc(Nc2nc(Cc3c(Cl)cccc3Cl)nc(NCC(O)CO)n2)cc1 (racemic) [Compound 26, (±)-4-[[4-[(2,6-dichlorophenyl)methyl]-6-[(2,3-dihydroxypropyl)amino]-1,3,5-triazin-2-yl]amino]benzonitrile]	59.7	pIC50 (HIV-1; [2]): 7.17
N#Cc1ccc(Nc2nc(Cc3c(Cl)cccc3Cl)nc(NC(=N)N)n2)cc1 [Compound 20, N-[4-[(4-cyanophenyl)amino]-6-[(2,6-dichlorophenyl)methyl]-1,3,5-triazin-2-yl]-guanidine]	4.3	
COc1cccc(Cc2nc(N)nc(Nc3ccc(C#N)cc3)n2)c1 [Compound 47]		pIC50 (HIV-1): 7.09; CC50 (mock-infected MT-4 cells): > 20 µM
